Source: patent publication US20100074870A1, “Probiotic infant products” (priority 2008, published 2010)

Each molecule was assayed on B. longum AH1206 (assay: Antibiotic sensitivity, minimum inhibitory concentration (MIC)). Conditions: antibiotic against B. longum AH1206; unit not given.

Q: Which “minimum inhibitory concentration (MIC)” value does the source give for `CCC[C@@H]1C[C@@H](C(=O)N[C@@H]([C@H]2O[C@H](SC)[C@H](O)[C@@H](O)[C@H]2O)[C@H](C)Cl)N(C)C1` [clindamycin] here?
A: The value was 0.32.

Q: How did the “minimum inhibitory concentration (MIC)” value turn out when `Cc1ncc([N+](=O)[O-])n1CCO` [metronidazole] was run?
A: Its value is 0.38.

Q: `CN[C@H](CC(C)C)C(=O)N[C@H]1C(=O)N[C@@H](CC(N)=O)C(=O)N[C@H]2C(=O)N[C@H]3C(=O)N[C@H](C(=O)N[C@H](C(=O)O)c4cc(O)cc(O)c4-c4cc3ccc4O)[C@H](O)c3ccc(c(Cl)c3)Oc3cc2cc(c3O[C@@H]2O[C@H](CO)[C@@H](O)[C@H](O)[C@H]2O[C@H]2C[C@](C)(N)[C@H](O)[C@H](C)O2)Oc2ccc(cc2Cl)[C@H]1O` [vancomycin] was tested. Which “minimum inhibitory concentration (MIC)” value did it give?
A: The value was 0.75.
